21 compounds from patent publication US11390604B2 (Hoffmann-La Roche Inc., priority 2019, dated 2022) can be followed below.

Counter-ions that a name gives are not always drawn. Like-named read-outs stand apart in the source and are kept apart here.

For this assay, the system named is Acinetobacter baumannii ATCC 17961. Put plainly: Antimicrobial susceptibility testing: 90% growth inhibitory concentration (IC90) determination. The format is cell-based. Put shortly: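 Growth was followed kinetically by OD600 at 20-min intervals for 16 h at 35±2 °C, with ~5×10^5 CFU/ml in Iso-Sensitest broth. Compounds were tested as twofold dilutions (e.g. 50–0.097 μM final). The concentration giving 90% inhibition of log-phase growth was reported.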

[1] abbreviates: ATCC17961, Acinetobacter baumannii ATCC 17961, Iso-Sensitest broth, read-out: ATCC 17961 IC90.

For `Cn1c(-c2cn(CC#N)nc2C(F)(F)F)cnc1C(=O)Nc1ccc(C(=O)N[C@H]2[C@@H]3CN(C(=O)N[C@@H]4CNC[C@H]4O)C[C@@H]32)c(Cl)c1` [Example 175, (1R,5S,6s)-6-(2-chloro-4-(5-(1-(cyanomethyl)-3-(trifluoromethyl)-1H-pyrazol-4-yl)-1-methyl-1H-imidazole-2-carboxamido)benzamido)-N-(trans-4-hydroxypyrrolidin-3-yl)-3-azabicyclo[3.1.0]hexane-3-carboxamide Formate], the IC90 under setting [1] came to 330 nM.

Take `Cn1c(-c2cn(CCF)nc2C(F)(F)F)cnc1C(=O)Nc1ccc(C(=O)N2CCN(C(=O)C3(O)CCCNC3)CC2)c(Cl)c1` (stereo not drawn) [Example 180, N-[3-chloro-4-[4-(3-hydroxypiperidine-3-carbonyl)piperazine-1-carbonyl]phenyl]-5-[1-(2-fluoroethyl)-3-(trifluoromethyl)pyrazol-4-yl]-1-methylimidazole-2-carboxamide; Trihydrochloride]: for the setting “Acinetobacter baumannii, ATCC17961, read-out: ATCC 17961 IC90, Acinetobacter baumannii ATCC 17961, Iso-Sensitest broth”, the IC90 was 397 nM. On to `Cn1c(-c2cn(C3CC3(F)F)nc2C(F)(F)F)cnc1C(=O)Nc1ccc(C(=O)NCCCCCN)c(Cl)c1` (stereo not drawn) [Example 247, N-(4-((5-aminopentyl)carbamoyl)-3-chlorophenyl)-5-(1-(2,2-difluorocyclopropyl)-3-(trifluoromethyl)-1H-pyrazol-4-yl)-1-methyl-1H-imidazole-2-carboxamide], for which the IC90 under setting [1] is 295 nM. On the same count and under the same terms, in the case of `Cc1cc(NC(=O)c2ncc(-c3cn(CC#N)nc3C(F)(F)F)n2C)ccc1S(C)(=O)=NCCCN` (stereo not drawn) [Example 291, N-[4-[N-(3-aminopropyl)-S-methyl-sulfonimidoyl]-3-methyl-phenyl]-5-[1-(cyanomethyl)-3-(trifluoromethyl)pyrazol-4-yl]-1-methyl-imidazole-2-carboxamide; formic acid] it was 359 nM; in that of `C=C(C)Cn1cc(-c2cnc(C(=O)Nc3ccc(C(=O)NCCCN)c(Cl)c3)n2C)c(C(F)(F)F)n1` [Example 255, N-(4-((3-aminopropyl)carbamoyl)-3-chlorophenyl)-1-methyl-5-(1-(2-methylallyl)-3-(trifluoromethyl)-1H-pyrazol-4-yl)-1H-imidazole-2-carboxamide tris(2,2,2-trifluoroacetate)], 312 nM; in that of `Cn1c(-c2cn(CC#N)nc2C(F)(F)F)cnc1C(=O)Nc1ccc(C(=O)N[C@H]2C[C@@H](NC(=O)[C@H]3C[C@H](N)C3)C2)c(Cl)c1` [Example 269, N-[4-[[3-[(3-aminocyclobutanecarbonyl)ami-no]cyclobutyl]carbamoyl]-3-chloro-phenyl]-5-[1-(cyanomethyl)-3-(trifluoromethyl)pyrazol-4-yl]-1-methyl-imidazole-2-carboxamide; formic acid], 333 nM. Consider `CCn1cc(-c2cnc(C(=O)Nc3ccc(C(=O)N4CCN(C(=O)C5CCNCC5)CC4)c(Cl)c3)n2C)c(C(F)(F)F)n1` [Example 114, N-[3-chloro-4-[4-(piperidine-4-carbonyl)piperazine-1-carbonyl]phenyl]-5-[1-ethyl-3-(trifluoromethyl)pyrazol-4-yl]-1-methylimidazole-2-carboxamide;hydrochloride], for which the concentration for an effect of 90% (IC90) under setting [1] worked out at 339 nM.

Turning to `Cn1c(-c2cn(CC3(CO)CC(C)(Cl)C3)nc2C(F)(F)F)cnc1C(=O)Nc1ccc(C(=O)N2CCN(C(=O)C3CCNCC3)CC2)c(Cl)c1` (stereo not drawn) [Example 105, 5-[1-[[3-chloro-1-(hydroxymethyl)-3-methylcyclobutyl]methyl]-3-(trifluoromethyl)pyrazol-4-yl]-N-[3-chloro-4-[4-(piperidine-4-carbonyl)piperazine-1-carbonyl]phenyl]-1-methylimidazole-2-carboxamide;hydrochloride], the 90% effect concentration (IC90) under setting [1] came out at 1610 nM. As to `Cn1c(-c2cn(C3CC3(F)F)nc2C(F)(F)F)cnc1C(=O)Nc1ccc(C(=O)NC2(C)CCN(C(=O)N[C@H]3C[C@@H](N)C3)CC2)c(Cl)c1` (mixture of isomers) [Example 333, rac-N-((1s,3s)-3-aminocyclobutyl)-4-(2-chloro-4-(5-(1-(2,2-difluorocyclopropyl)-3-(trifluoromethyl)-1H-pyrazol-4-yl)-1-methyl-1H-imidazole-2-carboxamido)benzamido)-4-methylpiperidine-1-carboxamide formate], the IC90 under setting [1] is 422 nM. Still for that read-out and setting: in the case of `Cn1c(-c2cn(C3CC3)nc2C(F)(F)F)cnc1C(=O)Nc1ccc(C(=O)N[C@H]2[C@@H]3CN(C(=O)N4CC[C@@H](N)C4)C[C@@H]32)c(Cl)c1` [Example 322, N-(4-((exo-3-((R)-3-aminopyrrolidine-1-carbonyl)-3-azabicyclo[3.1.0]hexan-6-yl)carbamoyl)-3-chlorophenyl)-5-(1-cyclopropyl-3-(trifluoromethyl)-1H-pyrazol-4-yl)-1-methyl-1H-imidazole-2-carboxamide formate] it was 407 nM; in that of `Cn1c(-c2cn(CC#CCN)nc2C(F)(F)F)cnc1C(=O)Nc1ccc(C(=O)N2CCN(C(=O)C3CCNCC3)CC2)c(Cl)c1` [Example 17, 5-(1-(4-aminobut-2-yn-1-yl)-3-(trifluoromethyl)-1H-pyrazol-4-yl)-N-(3-chloro-4-(4-(piperidine-4-carbonyl)piperazine-1-carbonyl)phenyl)-1-methyl-1H-imidazole-2-carboxamide dihydrochloride], 607 nM. With `Cn1c(-c2cn(C3CC3)nc2C(F)(F)F)cnc1C(=O)Nc1ccc(C(=O)N2CCN(C(=O)[C@H]3CCCN3)CC2)c(Cl)c1` [Example 250, (R)-N-(3-chloro-4-(4-prolylpiperazine-1-carbonyl)phenyl)-5-(1-cyclopropyl-3-(trifluoromethyl)-1H-pyrazol-4-yl)-1-methyl-1H-imidazole-2-carboxamide hydrochloride], the concentration for an effect of 90% (IC90) under setting [1] worked out at 302 nM. Consider `Cn1c(-c2cn(C3CC3)nc2C(F)(F)F)cnc1C(=O)Nc1ccc(C(=O)N2CCN(C(=O)[C@H]3C[C@H](O)CN3)CC2)c(Cl)c1` [Example 313, N-(3-chloro-4-(4-((2R,4S)-4-hydroxypyrrolidine-2-carbonyl)piperazine-1-carbonyl)phenyl)-5-(1-cyclopropyl-3-(trifluoromethyl)-1H-pyrazol-4-yl)-1-methyl-1H-imidazole-2-carboxamide hydrochloride], for which the IC90 under setting [1] was found to be 386 nM. Same read-out and setting: as for `C=C(C)Cn1cc(-c2cnc(C(=O)Nc3ccc(C(=O)NCCCCCN)c(Cl)c3)n2C)c(C(F)(F)F)n1` [Example 205, N-(4-((5-aminopentyl)carbamoyl)-3-chlorophenyl)-1-methyl-5-(1-(2-methylallyl)-3-(trifluoromethyl)-1H-pyrazol-4-yl)-1H-imidazole-2-carboxamide hydrochloride], the figure is 224 nM; as for `C#CCn1cc(-c2cnc(C(=O)Nc3ccc(C(=O)N4CCN(C(=O)N5C[C@@H]6C[C@H]5CN6)CC4)c(Cl)c3)n2C)c(C(F)(F)F)n1` [Example 88, N-[3-chloro-4-[4-[(1S,4S)-2,5-diazabicyclo[2.2.1]heptane-2-carbonyl]piperazine-1-carbonyl]phenyl]-1-methyl-5-[1-prop-2-ynyl-3-(trifluoromethyl)pyrazol-4-yl]imidazole-2-carboxamide], 170 nM; as for `Cn1c(-c2cn(C3CC3)nc2C(F)(F)F)cnc1C(=O)Nc1ccc(C(=O)N2CCN(C(=O)[C@H]3CC[C@H](N)CC3)CC2)c(Cl)c1` [Example 231, N-[4-[4-(4-aminocyclohexanecarbonyl)piper-azine-1-carbonyl]-3-chlorophenyl]-5-[1-cyclopropyl-3-(trifluoromethyl)pyrazol-4-yl]-1-methylimidazole-2-carboxamide;hydrochloride], 267 nM. On the same count and under the same terms, in the case of `Cc1cc(NC(=O)c2ncc(-c3cn(CC#N)nc3C(F)(F)F)n2C)cc(F)c1C(=O)N1CCN(C(=O)[C@H]2C[C@H](N)C2)CC1` [Example 118, N-[4-[4-(3-aminocyclobutanecarbonyl)piperazine-1-carbonyl]-3-fluoro-5-methylphenyl]-5-[1-(cyanomethyl)-3-(trifluoromethyl)pyrazol-4-yl]-1-methylimidazole-2-carboxamide] it was 884 nM; in that of `Cn1c(-c2cn(CC#N)nc2C(F)(F)F)cnc1C(=O)Nc1ccc(C(=O)N[C@H]2C[C@@H](NC(=O)N3CC4CC3CN4)C2)c(Cl)c1` (stereo partly drawn) [Example 328, N-[3-[[2-chloro-4-[[5-[1-(cyanomethyl)-3-(trifluoromethyl)pyrazol-4-yl]-1-methyl-imidazole-2-carbonyl]amino]benzoyl]amino]cyclobutyl]-2,5-diazabicyclo[2.2.1]heptane-2-carboxamide; formic acid], 420 nM.

With `Cn1c(-c2cn(C3CC3)nc2C(F)(F)F)cnc1C(=O)Nc1ccc(C(=O)NCCCCCCNC(=O)N[C@H]2C[C@@H](N)C2)c(Cl)c1` [Example 262, N-[4-[6-[(3-aminocyclobutyl)carbamoyl-amino]hexylcarbamoyl]-3-chlorophenyl]-5-[1-cyclopropyl-3-(trifluoromethyl)pyrazol-4-yl]-1-methylimidazole-2-carboxamide;formic acid], under setting [1], the 90% effect concentration (IC90) came to 323 nM. Same read-out and setting: in the case of `Cn1c(-c2cn(C3CC3)nc2C(F)(F)F)cnc1C(=O)Nc1ccc(C(=O)N2CCN(CCN)CC2)c(Cl)c1` [Example 228, N-(4-(4-(2-aminoethyl)piperazine-1-carbonyl)-3-chlorophenyl)-5-(1-cyclopropyl-3-(trifluoromethyl)-1H-pyrazol-4-yl)-1-methyl-1H-imidazole-2-carboxamide formate] it was 263 nM. Consider `Cc1cc(NC(=O)c2ncc(-c3cn(CC#N)nc3C(F)(F)F)n2C)cc(F)c1C(=O)N1CCN(C(=O)[C@H]2CCNC2)CC1` [Example 122, 5-[1-(cyanomethyl)-3-(trifluoromethyl)pyrazol-4-yl]-N-[3-fluoro-5-methyl-4-[4-[(3S)-pyrrolidine-3-carbonyl]piperazine-1-carbonyl]phenyl]-1-methylimidazole-2-carboxamide], for which the concentration for an effect of 90% (IC90) under setting [1] turned out to be 978 nM.

By IC90 is commonly meant the concentration needed for an effect of 90%.
